Laboratory results published in patent US9169315B2, “Heparin cofactor II fragments with anti-inflammatory and anti-coagulant activity” (XIMMUNE AB, priority 2009, dated 2015).
“Also recorded” adds a separate entry of the source. No end group written: not given here.

Assays:
P. aeruginosa 15159 = test: P. aeruginosa infection model (sepsis); format: in vivo, mice
Experimental: Mice were inoculated with P. aeruginosa and KYE28 (0.5 mg) was administrated sc 1 h after infection. (A) Bacterial counts in the indicated organs were analyzed after a time period of 4, 8, and 12 h. (B) In parallel, the indicated cytokines were analyzed in blood.
(A) Bacterial counts in the indicated organs were analyzed after a time period of 12 h. (B) Effects on platelets, lymphocytes, monocytes and neutrohils are shown. (C) In parallel, the indicated cytokines were analyzed in blood. […]
(A) P. aeruginosa 15159 bacteria (in PBS, ˜2×10^4 or 2×10^8 cfu/ml) were kept on ice until injection. Hundred microliter of the bacterial suspension were injected intraperitoneally (ip) into C57/Bl6 mice. At ˜10 min after the bacterial injection, 0.5 mg of NLF20 or PBS alone was injected ip into the mice. Liver, spleen and kidney were harvested, placed on ice, homogenized, and colony-forming units (cfu) determined 12 h after infection. (B) In a similar infection model (2×10^8 cfu/ml of P. aeruginosa) intraperitoneal (ip) administration after 30 min was compared with subcutaneous injection (sc) after 1 h. 0.5 mg of NLF20 was used. […] Mice were injected intraperitoneally with P. aeruginosa as above followed by ip or sc administration of NLF20 (500 μg). Survival was followed for 7 days. […] (D) NLF20 effects on TNF-α and IL-10 were analyzed in blood. (E) Thrombocytes were analyzed in blood. Treatment with NLF20 (ip and sc) increased thrombocyte levels.
Animals were Housed Under Standard Conditions of Light and Temperature and Had free access to standard laboratory chow and water. P. aeruginosa 15159 bacteria were grown to logarithmic phase (OD620˜0.5), harvested, washed in PBS, diluted in the same buffer to 2×10^8 cfu/ml, and kept on ice until injection. Hundred microliter of the bacterial suspension was injected intraperitoneally (i.p.) into female bI6 mice. […] In order to study bacterial dissemination to target organs spleen, liver and kidney were harvested, placed on ice, homogenized, and colony-forming units determined. The P-value was determined using the Mann-Whitney U-test. Data from three independent experiments were pooled.
Animals were housed under standard conditions of light and temperature AND had free access to standard laboratory chow and water. P. aeruginosa 15159 bacteria were grown to logarithmic phase (OD620˜0.5), harvested, washed in PBS, diluted in the same buffer to 2×10^8 cfu/ml, and kept on ice until injection. Hundred microliter of the bacterial suspension was injected intraperitoneally (i.p.) into female bI6 mice. Immediately subsequent the bacterial injection, 0.5 mg NLF20 (in 10 mM Tris, pH 7.4) or buffer alone was injected i.p. into the mice. In order to study bacterial dissemination to target organs spleen, liver and kidney were harvested, placed on ice, homogenized, and colony-forming units determined. The P-value was determined using the Mann-Whitney U-test. Data from three independent experiments were pooled.

RAW 264.7 macrophages = test: Cytokines in supernatants of LPS-stimulated macrophages; format: cell-based, mouse; details: 10 ng/ml E. coli LPS
Experimental: RAW 264.7 macrophages were stimulated with 10 ng/ml E. coli LPS in combination with indicated concentrations of the two peptides. (B) Similar as above, but using P. aeruginosa LPS(C) KYE28 reduced TNF-αproduction, MCP-1 and IL-10 production in macrophages. RAW 264. 7 cells were stimulated with 10 ng/ml E. coli LPS and cytokines were analysed in the cell supernatants
The cytokines IL-6, IL-10, MCP-1, INF-γ, and TNF-α were measured in cell culture supernatants from RAW264.7 cells and plasma from mice injected with LPS or P. aeruginosa (with or without peptide treatment) using the Cytometric bead array; Mouse Inflammation Kit (Becton Dickinson AB) according to the manufacturer's instructions. All plasma samples were stored at −20° C. before the analysis.

human blood = test: Hemolysis in human blood infected by bacteria; format: cell-based; details: peptide dose of 120 μM
Experimental: (§1) (A) Antibacterial effects of NLF20 in presence of the indicated bacteria in human blood (made 50% in PBS) are presented. The indicated microbes (2×10^8 cfu/ml) were added to 50% citrate blood, followed by addition of peptide at 30, 60 or 120 μM. The number of cfu was determined after an incubation period of 1 h. (B) In an identical setup, hemolysis effects were studied. The bacteria were added to 50% citrate blood, followed by addition of peptide. Hemolysis was assessed after 1 hour.
In the experiments with blood infected by bacteria, citrate-blood was diluted (1:1) with PBS.

P. aeruginosa = test: Electron microscopy of peptide-treated bacteria; format: cell-based; details: 30 μM, 2 h, 37° C.
Experimental: (A) Permeabilizing effects of peptides on E. coli. Bacteria were incubated with the NLF20 and permeabilization was assessed using the impermeant probe FITC. (B) Electron microscopy analysis. P. aeruginosa and S. aureus bacteria were incubated for 2 h at 37° C. with 30 μM of NLF20 and visualized by negative staining. LL-37 is shown for comparison. Scale bar represents 1 μm. Control; Buffer control.

[1] = test system: P. aeruginosa, E. coli, S. pyogenes, S. aureus, C. albicans; test: Antibacterial effects in human blood infected by bacteria; format: cell-based; details: 50% citrate blood
Experimental: as §1
E. coli ATCC 25922, P. aeruginosa 15159, or S. aureus ATCC 29213 bacteria were grown to mid-logarithmic phase in Todd-Hewitt (TH) medium (Becton and Dickinson, Maryland, USA). The microorganisms were then washed and diluted in 10 mM Tris, pH 7.4 containing 5 mM glucose. Following this, bacteria (50 μl; 2×10^6 cfu/ml) were incubated, at 37° C. for 2 hours, with NLF20 or LL-37 (at 0.03, 0.06, 0.3, 0.6, 3, 6, 30, 60 μM) in 10 mM Tris, 0.15 M NaCl, with or without 20% human citrate-plasma. […] To quantify the bactericidal activity, serial dilutions of the incubation mixtures were plated on TH agar, followed by incubation at 37° C. overnight and the number of colony-forming units was determined. […] Significance was determined using the statistical software SigmaStat (SPSS Inc., Chicago, Ill., USA).

[2] = 0.5 mg sc 1 h after infection, particularly after 12 h
[3] = sc 1 h, or 1 and 7 h after inoculation

## KYEITTIHNLFRKLTHRLFRRNFGYTLR [KYE28]
P. aeruginosa 15159; 0.5 mg sc 1 h after infection, 4, 8 and 12 h
  Bacterial levels in spleen, kidney and liver: did not significantly reduce bacterial levels
P. aeruginosa 15159; 0.5 mg sc 1 h after infection, after 12 h
  IL-10 in blood: not significantly modulated
P. aeruginosa 15159; [2]
  IFN-γ in blood: concomitant reduction of cytokine levels
  IL-6 in blood: concomitant reduction of cytokine levels
  MCP-1 in blood: concomitant reduction of cytokine levels
  TNF-α in blood: concomitant reduction of cytokine levels
P. aeruginosa 15159; one dose, sc 1 h after inoculation
  Survival: did not increase survival
P. aeruginosa 15159; one dose, sc 1 h after inoculation, 12 h
  Bacterial cfu in organs: did not significantly reduce bacterial cfu
P. aeruginosa 15159; repeated treatment, sc 1 and 7 h after inoculation, 12 h
  Bacterial cfu in organs: moderate reduction of cfu numbers
P. aeruginosa 15159; [3]
  Cytokines in blood: dramatic and highly significant reduction of cytokines in blood
  Platelets: slight, but significant increase in platelets
P. aeruginosa 15159; two-dose regime, sc 1 and 7 h after infection
  Survival / mortality: significantly reduced mortality; also recorded: significant delay of septic symptoms as well as delayed mortality, and eventually also increase in survival
RAW 264.7 macrophages
  IL-10 production: reduced
  MCP-1 production: reduced
  TNF-α production: reduced

## NLFRKLTHRLFRRNFGYTLR [NLF20]
Human blood
  Accompanying hemolysis in infected human blood: ≤ 2%
P. aeruginosa
  Membrane damage by electron microscopy: extensive membrane damage
P. aeruginosa 15159; 0.5 mg given subcutaneously 1 h after infection
  Bacterial cfu in organs: reductions in cfu
P. aeruginosa 15159; 0.5 mg ip shortly after bacterial injection, 12 h
  Bacterial numbers in spleen, liver and kidney: significantly lower bacterial numbers in the spleen, liver, and kidney
P. aeruginosa 15159; ip and sc
  Thrombocytes in blood: thrombocytes were increased
P. aeruginosa 15159; ip and sc administration
  IL-10 in blood: showing an increase (both administrations)
P. aeruginosa 15159; ip treatment
  TNF-α in blood: a reduction was noted after ip treatment
P. aeruginosa 15159; one dose (500 μg) ip, followed 7 days
  Mortality: significantly reduce mortality
P. aeruginosa 15159; one dose (500 μg) sc, followed 7 days
  Survival: prolong survival
P. aeruginosa 15159; subcutaneous injection after 1 h and then every 24 h for the three following days (FIG. 21)
  Survival: significantly increases survival
[1]; P. aeruginosa, E. coli, S. pyogenes, peptide dose 120 μM, 1 h
  Antibacterial effect in infected human blood: almost complete eradication of P. aeruginosa, E. coli, as well as S. pyogenes
[1]; S. aureus and C. albicans
  Antibacterial/antifungal effect in infected human blood: not active
